From US9951063B2, “8-(piperazin-1-yl)-1,2,3,4-tetrahydro-isoquinoline derivatives” (IDORSIA PHARMACEUTICALS LTD, priority 2014, dated 2018) come the findings set out here.

For orientation: IC50 means the point on the concentration scale where inhibition reaches its midpoint.

In the experiment the target is human CXCR3A (Homo sapiens (Human), UniProt P49682). As to the kind of experiment: FLIPR assay (inhibition of CXCL10-induced calcium signal). The experiment is classed as cell-based. To be noted: engineered CHO-K1 cells expressing human CXCR3A coupled to Galpha(16); Fluo-4-AM; CXCL10 agonist 20 nM; mean values where determined several times. In a few lines: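 CHO-K1 cells expressing human CXCR3A coupled to Gα16 were loaded with Fluo-4-AM for 1 h in HBSS/20 mM Hepes pH 7.4 with probenecid. Compound was added, then CXCL10 (20 nM as dispensed). Baseline-subtracted peak fluorescence gave inhibition curves and IC50, averaged over repeats.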
Sequence of human CXCR3A (P49682 whole entry): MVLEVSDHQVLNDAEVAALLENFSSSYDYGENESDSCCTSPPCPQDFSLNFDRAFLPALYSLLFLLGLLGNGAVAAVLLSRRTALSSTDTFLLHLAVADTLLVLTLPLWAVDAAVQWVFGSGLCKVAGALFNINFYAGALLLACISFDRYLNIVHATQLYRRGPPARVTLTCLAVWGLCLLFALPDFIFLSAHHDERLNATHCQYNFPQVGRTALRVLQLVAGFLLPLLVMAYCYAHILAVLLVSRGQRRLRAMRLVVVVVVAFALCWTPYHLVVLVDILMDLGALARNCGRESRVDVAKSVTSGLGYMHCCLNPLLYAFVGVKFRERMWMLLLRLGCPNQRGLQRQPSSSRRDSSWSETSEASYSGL
As for `Cc1ccnn1CC(=O)N1CCN(c2ccc(C(F)(F)F)c3c2CN(c2cnc(C4CC4)nc2)CC3)C[C@H]1C` [Example 49, 1-{(R)-4-[2-(2-Cyclopropyl-pyrimidin-5-yl)-5-trifluoromethyl-1,2,3,4-tetrahydro-isoquinolin-8-yl]-2-methyl-piperazin-1-yl}-2-(5-methyl-pyrazol-1-yl)-ethanone], the IC50 was 3.56 nM.
In the case of `C[C@@H]1CN(c2cccc3c2CN(c2ncccn2)CC3)CCN1C(=O)Cn1cnc2cccnc21` [Example 102, 2-Imidazo[4,5-b]pyridin-3-yl-1-[(R)-2-methyl-4-(2-pyrimidin-2-yl-1,2,3,4-tetrahydro-isoquinolin-8-yl)-piperazin-1-yl]-ethanone] it was 29.1 nM.
In the case of `CCCc1ncc(N2CCc3cccc(N4CCN(C(=O)Cn5cnc6cccnc65)[C@H](C)C4)c3C2)cn1` [Example 110, 2-Imidazo[4,5-b]pyridin-3-yl-1-{(R)-2-methyl-4-[2-(2-propyl-pyrimidin-5-yl)-1,2,3,4-tetrahydro-isoquinolin-8-yl]-piperazin-1-yl}-ethanone] it was 0.85 nM.
Turning to `CC(C)C(=O)N1CCc2cccc(N3CCN(C(=O)Cn4cnc5cccnc54)[C@H](C)C3)c2C1` [Example 67, 1-{8-[(R)-4-(2-Imidazo[4,5-b]pyridin-3-yl-acetyl)-3-methyl-piperazin-1-yl]-3,4-dihydro-1H-isoquinolin-2-yl}-2-methyl-propan-1-one], the IC50 is 614 nM.
Next, `C[C@@H]1CN(c2cccc3c2CN(c2ccc(OC(F)(F)F)cc2)CC3)CCN1C(=O)Cn1cnc2cccnc21` [Example 98, 2-Imidazo[4,5-b]pyridin-3-yl-1-{(R)-2-methyl-4-[2-(4-trifluoromethoxy-phenyl)-1,2,3,4-tetrahydro-isoquinolin-8-yl]-piperazin-1-yl}-ethanone]: 11.6 nM; `C[C@@H]1CN(c2cccc3c2CN(C(=O)OCc2ccccc2)CC3)CCN1C(=O)Cn1cnc2cccnc21` [Example 60, 8-[(R)-4-(2-Imidazo[4,5-b]pyridin-3-yl-acetyl)-3-methyl-piperazin-1-yl]-3,4-dihydro-1H-isoquinoline-2-carboxylic acid benzyl ester]: 7.94 nM; `C[C@@H]1CN(c2cccc3c2CN(C(=O)Cn2cccn2)CC3)CCN1C(=O)Cn1cnc2cccnc21` [Example 87, 2-Imidazo[4,5-b]pyridin-3-yl-1-{(R)-2-methyl-4-[2-(2-pyrazol-1-yl-acetyl)-1,2,3,4-tetrahydro-isoquinolin-8-yl]-piperazin-1-yl}-ethanone]: 5420 nM.
Next, `C[C@@H]1CN(c2ccc(Br)c3c2CN(C(=O)OCc2ccccc2)CC3)CCN1C(=O)Cn1cnc2cccnc21` [Example 144, 5-Bromo-8-[(R)-4-(2-imidazo[4,5-b]pyridin-3-yl-acetyl)-3-methyl-piperazin-1-yl]-3,4-dihydro-1H-isoquinoline-2-carboxylic acid benzyl ester]: 85.7 nM; `CCOc1ncc(N2CCc3cccc(N4CCN(C(=O)Cn5nc(C)nc5C)[C@H](C)C4)c3C2)cn1` [Example 127, 2-(3,5-Dimethyl-[1,2,4]triazol-1-yl)-1-{(R)-4-[2-(2-ethoxy-pyrimidin-5-yl)-1,2,3,4-tetrahydro-isoquinolin-8-yl]-2-methyl-piperazin-1-yl}-ethanone]: 33.1 nM.
Next, `Cc1cc(C)n(CC(=O)N2CCN(c3ccc(C(F)(F)F)c4c3CN(c3ncc(-c5ccccc5)o3)CC4)C[C@H]2C)n1` [Example 56, 2-(3,5-Dimethyl-pyrazol-1-yl)-1-{(R)-2-methyl-4-[2-(5-phenyl-oxazol-2-yl)-5-trifluoromethyl-1,2,3,4-tetrahydro-isoquinolin-8-yl]-piperazin-1-yl}-ethanone]: 8.14 nM; `Cc1nc(C)n(CC(=O)N2CCN(c3cccc4c3CN(c3cnc(C5CC5)nc3)CC4)C[C@H]2C)n1` [Example 126, 1-{(R)-4-[2-(2-Cyclopropyl-pyrimidin-5-yl)-1,2,3,4-tetrahydro-isoquinolin-8-yl]-2-methyl-piperazin-1-yl}-2-(3,5-dimethyl-[1,2,4]triazol-1-yl)-ethanone]: 3.98 nM.
